In patent US4069317A, “N^2 -Arylsulfonyl-L-argininamides and the pharmaceutically acceptable salts thereof” (Mitsubishi Chemical Industries Ltd., priority 1974, dated 1978):

Columns and labels:
mice = experiment: acute toxicity (LD50), intraperitoneal administration in mice; format: in vivo; conditions: mice (male, 20 g)
Text: Representative LD50 values, for example, for N^2 -(6,7-dimethoxy-2-naphthylsulfonyl)-L-arginyl-N-butylalanine and N^2 -(4,6-dimethoxy-2-naphthylsulfonyl)-L-arginyl-N-cyclohexylmethylalanine are above 1,500 milligrams per kilogram each.

thrombin = target: T1, thrombin (Bos taurus, UniProt P00735); experiment: fibrinogen coagulation time; format: biochemical; conditions: bovine fibrinogen, thrombin 5 units/ml, borate saline buffer pH 7.4, 25° C; control coagulation time 50-55 seconds
T1 construct: purchased Mochida Pharmaceutical Co., Ltd
Experimental: The measurement of the fibrinogen coagulation time was conducted as follows:
Immediately after mixing, the reaction mixture was transferred from the ice bath to a bath maintained at 25° C. Coagulation times were taken as the period between the time of transference to the 25° C bath and the time of the first appearance of fibrin threads.
The term "concentration required to prolong the coagulation time by a factor of two" is the concentration of an active ingredient required to prolong the normal coagulation time 50-55 seconds to 100-110 seconds.

For `CCCCN(C)C(=O)[C@H](CCCNC(=N)N)NS(=O)(=O)c1cccc2c(N(C)C)cccc12` [N^2 -dansyl-N-methyl-N-butyl-L-argininamide, reference compound], the “acute toxicity LD50” value (mice) was 70 milligrams per kilogram.

`CCCCCN(C(=O)[C@H](CCCNC(=N)N)NS(=O)(=O)c1ccc2cc(OC)c(OC)cc2c1)[C@@H](C)C(=O)O` [Sample 4, N^2-(6,7-dimethoxy-2-naphthylsulfonyl)-L-arginyl-N-pentylalanine] was tested, and the “Concentration required to prolong the coagulation time by a factor of two” value (“Concentration required” below) (thrombin) was 2.0 µM.

With `CCC[C@H](NC(=O)[C@H](CCCNC(=N)N)NS(=O)(=O)c1ccc2cc(OC)c(OC)cc2c1)C(=O)O` [Sample 21, N^2-(6,7-dimethoxy-2-naphthylsulfonyl)-L-arginylnorvaline] the “Concentration required” value (thrombin) was 15 µM.

With `COc1cc2ccc(S(=O)(=O)N[C@@H](CCCNC(=N)N)C(=O)N(C)[C@@H](Cc3ccccc3)C(=O)O)cc2cc1OC` [Sample 18, N^2-(6,7-dimethoxy-2-naphthylsulfonyl)-L-arginyl-N-methylphenylalanine] the “Concentration required” value (thrombin) was 2 µM.

In the case of `CCCCNC(=O)[C@H](CCCNC(=N)N)NS(=O)(=O)c1cccc2c(N(C)C)cccc12` [N^2 -dansyl-N-butyl-L-argininamide, reference compound], the “acute toxicity LD50” value (mice) is reported as 75 milligrams per kilogram.

`COc1cc2ccc(S(=O)(=O)N[C@@H](CCCNC(=N)N)C(=O)N(Cc3ccccc3)[C@@H](C)C(=O)O)cc2cc1OC` [Sample 6, N^2-(6,7-dimethoxy-2-naphthylsulfonyl)-L-arginyl-N-benzylalanine] was tested, and the “Concentration required” value (thrombin) was 2.5 µM.

For `CCCCN(C(=O)[C@H](CCCNC(=N)N)NS(=O)(=O)c1ccc2cc(OC)c(OC)cc2c1)[C@@H](C)C(=O)O` [Sample 2, N^2-(6,7-dimethoxy-2-naphthylsulfonyl)-L-arginyl-N-butylalanine], the “acute toxicity LD50” value (mice) was “above 1,500 milligrams per kilogram”.

For `COCCN(C(=O)[C@H](CCCNC(=N)N)NS(=O)(=O)c1ccc2cc(OC)c(OC)cc2c1)[C@@H](C)C(=O)O` [Sample 15, N^2-(6,7-dimethoxy-2-naphthylsulfonyl)-L-arginyl-N-(2-methoxyethyl)alanine], the “Concentration required” value (thrombin) was 5 µM.

With `COc1cc2ccc(S(=O)(=O)N[C@@H](CCCNC(=N)N)C(=O)N(CCc3ccccc3)[C@@H](C)C(=O)O)cc2cc1OC` [Sample 8, N^2-(6,7-dimethoxy-2-naphthylsulfonyl)-L-arginyl-N-phenethylalanine] the “Concentration required” value (thrombin) was 1.5 µM.

In the case of `COc1ccc2ccc(S(=O)(=O)N[C@@H](CCCNC(=N)N)C(=O)N(C)[C@@H](Cc3ccccc3)C(=O)O)cc2c1` [Sample 20, N^2-(7-methoxy-2-naphthylsulfonyl)-L-arginyl-N-methylphenylalanine], the “Concentration required” value (thrombin) is reported as 2.5 µM.

With `COc1ccc2cc(S(=O)(=O)N[C@@H](CCCNC(=N)N)C(=O)N(CC3CCCCC3)[C@@H](C)C(=O)O)cc(OC)c2c1` [Sample 12, N^2-(4,6-dimethoxy-2-naphthylsulfonyl)-L-arginyl-N-cyclohexylmethylalanine] the “acute toxicity LD50” value (mice) was “above 1,500 milligrams per kilogram” and the “Concentration required” value (thrombin) was 4.5 µM.
